Literature values, collected in US11000540B1, “Treatment for reducing adverse events including chemotherapy discomfort and other conditions” (priority 2019, dated 2021).

Settings: buffer pair acid/conjugate base

| Molecule | pKa of Acid (or pH of 1:1 mixture) |
| --- | --- |
| NCC(=O)O [Glycine/Glycine anion, Glycine] | 9.60 |
| O=S(=O)(O)CCNC1CCCCC1 [N-Cyclohexy1-2-aminoethanesuifonic acid] | 9.3 |
| Boric Acid [Boric Acid/Borate] | 9.0 |
| Tris(hydroxymethyl)aminomethane | 8.2 |
